Legend:
HO-1 = details: hair follicles treated with sulforaphane; cited from earlier work
[1] = tested on: NADP(H): quinone oxidoreductase (NQO-1); assay: NQO-1 gene expression assay of hair follicle cells (real time PCR); type: cell-based, human; details: 24 hour treatment, n = 3
Description: Temporal or occipital human scalp skin was obtained from subjects undergoing face-lift or hair transplant surgery with informed consent and ethics approval. Anagen VI hair follicles were isolated and maintained according to the method described in Philpott et al (J. Cell Sci 97, 463-471 (1990)). Dhurat et al (Int J Trichology, 2(2), 96-100 (July-December 2010)) describe that anagen is conventionally divided into six stages, Anagen I-V (proanagen), when the hair shaft grows within the hair follicle, and Anagen VI ([…]), when the tip of the hair shaft emerges from the hair follicle. Hair follicles were stabilised in RNAlater (for PCR). Five individual Anagen VI hair follicles were used for each culture condition/patient. […] RNA was extracted using the Qiagen RNeasy Microkit (maximum 5 mg tissue per extraction). […] cDNA was diluted 1:10 in RNase free water. […] Plates were run on an Applied Biosystems StepOnePlusTM Real Time PCR machine. Fast cycling conditions were used, utilising a 2 minute polymerase activation step at 95° C., followed by 45 cycles of denaturing at 95° C. for 1 second, and annealing/extension at 60° C. for 20 seconds. […] Data was analysed by the ΔΔCt methodology The test compounds were sulforaphane, an NRF2 agonist, and 22(R)-hydroxycholesterol, a liver X receptor α/β agonist, and mixtures thereof.

[2] = tested on: hemeoxygenase-1 (HO-1) protein; assay: HO-1 ELISA of lysates of treated HaCaT cells; type: cell-based, human; details: 24 hours, n = 3
Method: HaCaT (immortal human keratinocyte) cells (P42) were stored in liquid nitrogen and revived in DMEM containing 10% FBS. The cells were sub-cultured and cryostocks made in 10% DMEM containing 10% DMSO from the first two passages. Cells were routinely plated out in 6-well tissue culture dishes, at a seeding density of ˜5000 cells/cm2 in 2 ml complete medium/well for 24 hours, and incubated at 37° C. in 5% CO2. Test solutions were prepared in ethanol or DMSO and added directly to the cells and treated for 24 hours. The cells were then pelleted. All cell pellets were lysed on ice for 30 minutes in 1 ml cell lysis buffer per 2.5×10^6 cells. The lysis buffer contained 1% NP-40, 0.1% sodium deoxycholate, 0.1% SDS, 6 mM sodium chloride and 0.05 M Tris at pH 7.6. […] Sigma P8340) was added prior to use at a level of 10 μl per ml of lysis buffer. The clarified cell lysate was frozen at −80° C. until needed. The total protein concentration of each cell lysate was measured using the Pierce BCA protein assay kit. […] The reagent solution was prepared according to the kit instructions from 50 parts reagent A and 1 part reagent B. 200 μl of the final reagent was added to each well of the microtitre plate. The plate was mixed, covered and incubated at 37° C. for 30 minutes and absorbance read at 562 nm. A protein standard curve was constructed and used to determine the protein concentration of each cell lysate. HO-1 ELISA (R & D Systems) The hemeoxygenase-1 (HO-1) protein concentration of each cell lysate was assayed using the DuoSet Human Total HO-1/HMOX1 assay (R&D Systems DYC3776) according to the manufacturer's instructions. […] The HO-1 capture antibody was diluted to a concentration of 8 μg/ml in PBS and was bound to the microtitre plate (Greiner Bio-One) overnight at room temperature. The unbound antibody was then removed by washing 3 times with wash buffer (0.05% Tween 20 in PBS) on an automatic plate washer. […] The plate was washed as before. 100 μl of 1/200 diluted streptavidin horseradish peroxidase (HRP) was added to each well and incubated in the dark for 20 minutes at room temperature. The plate was washed as before and then 100 μl of substrate solution (R&D Systems DY999, 1:1 mixture of Colour Reagent A and Colour Reagent B) was added to each well and incubated, in the dark at room temperature, until colour developed (approx 20 minutes). 50 μl of stop solution (2M H2SO4) was applied to each well and the plate read on a microplate reader (Dynex MRX) at 450 nm with wavelength correction set at 540 nm. A standard curve was plotted of mean OD versus HO-1 concentration and the line of best fit calculated by regression analysis. The unknown concentration of HO-1 protein in all the samples was calculated from this. The results were normalised using the total protein data and expressed as ng HO-1 per μg protein. The test compounds were sulforaphane, an NRF2 agonist, and 22(R)-hydroxycholesterol, a liver X receptor α/β agonist, and mixtures thereof.

[3] = tested on: antioxidant response element (ARE); assay: HaCaT cell with antioxidant response element (ARE) reporter gene (luciferase) assay; type: cell-based, human; details: n = 3
Method: HaCaT (immortal human keratinocyte) cells (P42) were stored in liquid nitrogen and revived in DMEM containing 10% FBS. The cells were sub-cultured and cryostocks made in 10% DMEM containing 10% DMSO from the first two passages.
To generate a stable cell line, the optimal antibiotic concentration was determined for selecting stable cell colonies. A kill curve was performed using untransfected HaCaT cells to evaluate their hygromycin B sensitivity (as the ARE-luciferase construct to be used for transfection contains the gene for hygromycin B resistance). HaCaT cells were plated in a 24-well tissue culture plate at a cell density of ˜80,000 cells per well. 24 hours later the cells were treated with different concentrations of Hygromycin B (ranging from 100 μg/ml to 800 μg/ml for seven days).
pGL4.37 (luc2P/ARE/Hygro) vector (Promega Cat. No. #E3641) transformed into DH5α competent cells (Invitrogen Cat. No. #18263-012). These were then plated on to an LB-ampicillin plate and kept overnight at 37° C. in an incubator.
The next day, single colonies were picked and inoculated in 5 ml LB Amp medium and kept at 37° C. for 8 hours in a shaker incubator at 250 rpm. The starter culture was then inoculated at 1:100 in 100 ml LB Amp medium. 24 hours later, the culture was harvested and transfection grade plasmid prepared using Sigma's Plasmid Midiprep Kit (Cat. No. #PLD35-1KT).
HaCaT cells were plated in 6-well tissue culture plate at a cell density of 500,000 cells per well. After 24 hours, the cells were transfected with 2 μg of endotoxin-free transfection grade pGL4.37 [luc2P/ARE/Hygro] vector in duplicates using Lipofectamine 2000 Reagent (Invitrogen) as per manufacturer's protocol. After transfection, HaCaT cells were allowed to grow and to express the protein for Hygromycin B resistance under non-selective conditions for 24 hours. One day post transfection cells were treated with Hygromycin B at a concentration of 400 μg/ml to initiate the antibiotic selection pressure. For the selection of stably expressing cells, HaCaT cells were grown in 10% DMEM medium containing 400 μg/ml of Hygromycin B. Under Hygromycin B selective conditions, resistant cells will outgrow non-resistant cells thereby resulting in a polyclonal population of stably-expressing cells. Stably expressing HaCaT cells were fed every 2-3 days with 400 μg/ml Hygromycin B selection medium. After 3 weeks of selection with 400 μg/ml of Hygromycin B medium stable pools were observed on the plate. Individual clones were picked using cloning rings and transferred to 96-well plate and expanded up to T25 cm^2 flask. Out of a dozen individual clones, clone 7 was chosen and validated for expression of luciferase upon treatment with D,L-sulforaphane.
HaCaT_ARE_luc2P_Clone_7 cells were seeded in a 96 well plate at a cell density of ˜7.5×10^3 cells per well. 24 hours later D, L-sulforaphane was added at increasing concentrations (0 μM, 0.2 μM, 0.4 μM, 0.6 μM, 0.8 μM and 1 μM). A standard curve for the luciferase assay was generated for relative light units (RLU) for HaCaT_ARE_Clone_7 cells treated with increasing concentrations of D,L-sulforaphane.
HaCaT_ARE_luc2P_Clone_7 cells were seeded in 96 well plates at a cell density of ˜7,500 cells per well. All test compounds were added to the cells at a final dilution of 1:1000 and the luciferase assay performed.
The following combinations of test compounds were evaluated in the assay: • (a) granilin, an NRF2 agonist, and 22(R)-hydroxycholesterol, a liver X receptor α/β agonist; • (b) granilin and 3-[3-[[[2-chloro-3-(trifluoromethyl)phenyl]methyl](2,2-diphenylethyl) amino]propoxy]benzeneacetic acid hydrochloride (also known as GW 3965 hydrochloride and available from Tocris), a liver X receptor α/β agonist; and • (c) granilin and stigmasterol, a liver X receptor α/β agonist. Results

SMILES	HO-1 protein (ng HO-1 per μg protein) ([2]; 1 μM single compound)	RLU ([3]; 1 μM single compound) [RLU]	RLU ([3]; 10 μM single compound) [RLU]	also measured
C[S+]([O-])CCCCN=C=S (stereo not shown) [sulforaphane]	1.910 ± 0.418			HO-1 in the mesenchymal connective tissue sheath (HO-1): up-regulation of HO-1; NQO-1 Fold change compared to 18S ([1]; 10 μM): 5.44 ± 0.50 Fold change; HO-1 protein (ng HO-1 per μg protein) ([2]; 0.01 μM single compound): 1.602 ± 0.248 ng HO-1 per μg protein; HO-1 protein (ng HO-1 per μg protein) ([2]; 0.05 μM single compound): 1.600 ± 0.385 ng HO-1 per μg protein
CC(C)CC[C@@H](O)[C@@H](C)[C@H]1CC[C@H]2[C@@H]3CC=C4C[C@@H](O)CC[C@]4(C)[C@H]3CC[C@]12C [22(R)-hydroxycholesterol]	1.486 ± 0.387	1.17 ± 0.03	0.67 ± 0.01	NQO-1 Fold change compared to 18S ([1]; 5 μM): 1.04 ± 0.05 Fold change; HO-1 protein (ng HO-1 per μg protein) ([2]; 10 μM single compound): 3.174 ± 0.119 ng HO-1 per μg protein
CC[C@H](/C=C/[C@@H](C)[C@H]1CC[C@H]2[C@@H]3CC=C4C[C@@H](O)CC[C@]4(C)[C@H]3CC[C@]12C)C(C)C [stigmasterol]		0.78 ± 0.02	0.69 ± 0.00	
C=C1C(=O)O[C@@H]2C[C@@]3(C)[C@@H](O)C[C@@H](O)C(=C)[C@@H]3C[C@H]12 [granilin]		3.77 ± 0.31		RLU ([3]; 5 μM single compound): 15.04 ± 0.18 RLU
Cl.O=C(O)Cc1cccc(OCCCN(Cc2cccc(C(F)(F)F)c2Cl)CC(c2ccccc2)c2ccccc2)c1 [GW 3965 hydrochloride, 3-[3-[[[2-chloro-3-(trifluoromethyl)phenyl]methyl](2,2-diphenylethyl)amino]propoxy]benzeneacetic acid hydrochloride]		1.02 ± 0.02	0.63 ± 0.01	
